According to ChEMBL document CHEMBL1136303, “4-(2-pyridyl)piperazine-1-carboxamides: potent vanilloid receptor 1 antagonists” (Bioorg Med Chem Lett, 2003):

Key:
[1] = molecular target: T1, Transient receptor potential cation channel subfamily V member 1 (Rattus norvegicus, UniProt O35433); assay: Vanilloid receptor subtype 1 antagonist activity based on its ability to block low pH-induced activation of the rat VR1 channel in a HEK293 cell line; format: functional
[2] = molecular target: T1, Transient receptor potential cation channel subfamily V member 1; assay: Vanilloid receptor subtype 1 antagonist activity based on its ability to block capsaicin-induced (CAP) activation of the rat VR1 channel in a HEK293 cell line; format: functional
[3] = Oral bioavailability in rat by po administration at a dose of 40 mg/kg; format: ADME, organism-based; conditions: in vivo
[4] = Pharmacokinetic (PK) parameter Vz in rat; format: ADME, organism-based; conditions: in vivo, read-out: Vz
[5] = Cmax in rat by po administration at a dose of 40 mg/kg; format: ADME, organism-based; parameters: dose 40 mg/kg, route oral; conditions: in vivo
[6] = Plasma clearance in rat by iv administration at a dose of 3 mg/kg; format: ADME, organism-based; parameters: dose 3 mg/kg, route intravenous
[7] = Tmax in rat by po administration at a dose of 40 mg/kg; format: ADME, organism-based; parameters: dose 40 mg/kg, route oral; conditions: in vivo
[8] = Half life period in rat by iv administration at a dose of 3 mg/kg; format: ADME, organism-based; parameters: dose 3 mg/kg, route intravenous; conditions: in vivo

T1 sequence (O35433 whole entry): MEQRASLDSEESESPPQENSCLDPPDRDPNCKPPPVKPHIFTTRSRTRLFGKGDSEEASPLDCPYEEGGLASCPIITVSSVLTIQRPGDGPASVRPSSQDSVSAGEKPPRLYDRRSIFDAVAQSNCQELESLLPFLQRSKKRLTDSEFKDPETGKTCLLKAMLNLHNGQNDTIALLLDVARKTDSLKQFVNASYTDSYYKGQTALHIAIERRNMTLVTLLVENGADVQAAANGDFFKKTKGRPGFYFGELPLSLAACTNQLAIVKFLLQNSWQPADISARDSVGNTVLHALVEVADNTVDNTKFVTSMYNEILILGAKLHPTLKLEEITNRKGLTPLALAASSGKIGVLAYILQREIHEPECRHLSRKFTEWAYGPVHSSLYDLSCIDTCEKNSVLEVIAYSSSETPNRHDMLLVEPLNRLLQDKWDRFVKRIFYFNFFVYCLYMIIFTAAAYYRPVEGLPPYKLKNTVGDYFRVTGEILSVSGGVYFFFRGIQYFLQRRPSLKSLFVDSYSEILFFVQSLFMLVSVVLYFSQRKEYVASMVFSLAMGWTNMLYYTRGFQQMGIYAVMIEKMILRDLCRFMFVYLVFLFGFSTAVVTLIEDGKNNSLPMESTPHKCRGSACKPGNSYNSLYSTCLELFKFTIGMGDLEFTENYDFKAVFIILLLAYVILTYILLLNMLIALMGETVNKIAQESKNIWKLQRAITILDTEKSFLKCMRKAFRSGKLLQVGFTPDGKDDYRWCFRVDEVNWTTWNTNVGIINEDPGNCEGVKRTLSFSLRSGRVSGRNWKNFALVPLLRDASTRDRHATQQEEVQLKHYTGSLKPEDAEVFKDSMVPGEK

Compound | IC50 [1] [nM] | IC50 [2] [nM] | also measured
O=C(Nc1ccc(Br)cc1)N1CCN(c2ncccc2Cl)CC1 | 1010 | 491 | 
O=C(Nc1ccc2ccccc2c1)N1CCN(c2ncccc2Cl)CC1 | 278 | 479 | 
CC(C)(C)c1ccc(NC(=S)N2CCN(c3ncccc3C(F)(F)F)CC2)cc1 | 441 | 246 | 
O=C(Nc1ccc(Oc2ccccc2)cc1)N1CCN(c2ncccc2C(F)(F)F)CC1 | 916 | 258 | 
Cc1cccnc1N1CCN(C(=O)Nc2ccc(C(C)C)cc2)CC1 | 173 | 25.3 | 
CC(C)c1ccc(NC(=O)N2CCN(c3ncccc3[N+](=O)[O-])CC2)cc1 | 245 | 190 | 
O=C(Nc1ccc(C2CCCCC2)cc1)N1CCN(c2ncccc2Cl)CC1 | 91.7 | 29.8 | 
CCCCc1ccc(NC(=O)N2CCN(c3ncccc3C(F)(F)F)CC2)cc1 | 5180 | 1360 | 
O=C(Nc1ccc(I)cc1)N1CCN(c2ncccc2Cl)CC1 | 310 | 285 | 
CC(C)c1ccc(NC(=O)N2CCN(c3ncccc3Br)CC2)cc1 | 27.1 | 4.6 | 
CCc1ccc(NC(=O)N2CCN(c3ncccc3C(F)(F)F)CC2)cc1 | 121 | 111 | 
Cc1ccc(NC(=O)N2CCN(c3ncccc3C(F)(F)F)CC2)cc1 |  | 556 | 
CC(C)c1ccc(NC(=O)N2CCN(c3ncccc3C=O)CC2)cc1 | 1400 | 201 | 
CCc1cccnc1N1CCN(C(=O)Nc2ccc(C(C)C)cc2)CC1 | 828 | 230 | 
Oc1cc2c(cc1O)CN(C(=S)NCCc1ccc(Cl)cc1)CCC2 [CAPSAZEPINE] |  | 58 | 
CC(C)(C)[C@H]1CC[C@H](NC(=O)N2CCN(c3ncccc3Cl)CC2)CC1 | 17.2 | 3.9 | 

Compound | IC50 [1] [nM] | IC50 [2] [nM] | also measured
O=C(Nc1ccc(C(F)(F)F)cc1)N1CCN(c2ncccc2Cl)CC1 | 81.4 | 63.5 | 
O=C(Nc1ccc(Cl)cc1)N1CCN(c2ncccc2Cl)CC1 |  | 655 | 
CCC(C)c1ccc(NC(=O)N2CCN(c3ncccc3Cl)CC2)cc1 (stereo not drawn) | 23.3 | 17.4 | 
CC(C)c1ccc(NC(=O)N2CCN(c3ncccc3C#N)CC2)cc1 | > 25000 | 287 | 
CC(C)c1ccc(NC(=O)N2CCN(c3ncccc3I)CC2)cc1 | 77.4 | 56.7 | 
CCCCc1ccc(NC(=O)N2CCN(c3ncccc3Cl)CC2)cc1 | 203 | 117 | 
O=C(Nc1ccc(OC(F)(F)F)cc1)N1CCN(c2ncccc2Cl)CC1 | 261 | 93.2 | 
CC(C)(C)c1ccc(NC(=O)N2CCN(c3ncccc3Cl)CC2)cc1 |  |  | bioavailability [3]: 15.1%; Vd [4]: 5.8 L/kg; Cmax [5]: 1120 ng/mL; clearance [6]: 76.7 mL/min/kg; Tmax [7]: 30 min; half-life [8]: 54 min
CC(C)c1ccc(NC(=O)N2CCN(c3ncccc3Cl)CC2)cc1 |  | 11.5 | 
CC(C)c1ccc(NC(=S)N2CCN(c3ncccc3C(F)(F)F)CC2)cc1 | 575 | 872 | 
CC(C)c1ccc(NC(=O)N2CCN(c3ncccc3C(F)F)CC2)cc1 | 61.5 | 27.7 | 
CCc1ccc(NC(=O)N2CCN(c3ncccc3Cl)CC2)cc1 | 56.6 | 107 | 
CCCc1ccc(NC(=O)N2CCN(c3ncccc3Cl)CC2)cc1 | 73 | 41.6 | 
CC(C)c1ccc(NC(=O)N2CCN(c3ncccc3C(F)(F)F)CC2)cc1 |  | 57.5 | 
CC(C)(C)c1ccc(NC(=O)N2CCN(c3ncccc3C(F)(F)F)CC2)cc1 | 57.7 | 11.3 | 
O=C(Nc1ccc([N+](=O)[O-])cc1)N1CCN(c2ncccc2Cl)CC1 | > 25000 | 1110 | 
